Results published in ChEMBL document CHEMBL3120155, “4,4'-Diaminodiphenyl ether derivatives: synthesis, spectral, optical, thermal characterization and in-vitro cytotoxicity against Hep 3B and IMR 32 human cell lines” (Eur J Med Chem, 2014).
In brackets after ≈: the same amount, converted by molar mass. Activity calls are given as the source filed them. The rule behind the calls is not given here.

Tests used:
[1] = Cytotoxicity against human Hep3B cells after 6 hrs by MTT assay; format: functional, cell-based, Hep 3B2
[2] = Cytotoxicity against human IMR32 cells after 6 hrs by MTT assay; format: functional, cell-based; conditions: IMR-32, 6 h
[3] = system: IMR-32; experiment: Induction of apoptosis in human IMR32 cells assessed as DNA fragmentation at IC50 after 6 hrs by agarose gel electrophoresis; format: functional, cell-based
[4] = system: Hep 3B2; experiment: Induction of apoptosis in human Hep3B cells assessed as DNA fragmentation at IC50 after 6 hrs by agarose gel electrophoresis; format: functional, cell-based
[5] = system: IMR-32; experiment: Induction of apoptosis in human IMR32 cells assessed as cell shrinkage at IC50 after 6 hrs by microscopic analysis; format: functional, cell-based
[6] = system: Hep 3B2; experiment: Induction of apoptosis in human Hep3B cells assessed as cell shrinkage at IC50 after 6 hrs by microscopic analysis; format: functional, cell-based

C(=N\c1ccc(Oc2ccc(/N=C/c3ccccc3)cc2)cc1)/c1ccccc1
IC50 [1]: 29.8 µg/mL (≈ 79.3 µM)
IC50 [2]: 42.9 µg/mL (≈ 114 µM)

c1ccc2c(CNc3ccc(Oc4ccc(NCc5cccc6ccccc56)cc4)cc3)cccc2c1
IC50 [1]: 89.1 µg/mL (≈ 185 µM)
IC50 [2]: 89.1 µg/mL (≈ 185 µM)

C(=N\c1ccc(Oc2ccc(/N=C/c3cccc4ccccc34)cc2)cc1)/c1cccc2ccccc12
Activity [3]: Active
Activity [4]: Active
Activity [5]: Active
IC50 [1]: 14.1 µg/mL (≈ 29.6 µM)
IC50 [2]: 33.5 µg/mL (≈ 70.3 µM)
Activity [6]: Active

c1ccc(CNc2ccc(Oc3ccc(NCc4ccccc4)cc3)cc2)cc1
Activity [3]: Active
Activity [4]: Active
IC50 [1]: 28.2 µg/mL (≈ 74.1 µM)
IC50 [2]: 31.9 µg/mL (≈ 83.9 µM)

Nc1ccc(Oc2ccc(N)cc2)cc1
IC50 [1]: 83.2 µg/mL (≈ 415 µM)
IC50 [2]: 54.5 µg/mL (≈ 272 µM)

c1ccc2c(CNc3ccc(Oc4ccc(NCc5c6ccccc6cc6ccccc56)cc4)cc3)c3ccccc3cc2c1
IC50 [1]: 50.1 µg/mL (≈ 86.3 µM)
IC50 [2]: 65 µg/mL (≈ 112 µM)

C(=N\c1ccc(Oc2ccc(/N=C/c3cc4ccccc4c4ccccc34)cc2)cc1)/c1cc2ccccc2c2ccccc12
IC50 [1]: 44.7 µg/mL (≈ 77.5 µM)
IC50 [2]: 63.1 µg/mL (≈ 109 µM)

C(=N\c1ccc(Oc2ccc(/N=C/c3c4ccccc4cc4ccccc34)cc2)cc1)/c1c2ccccc2cc2ccccc12
IC50 [1]: 59.6 µg/mL (≈ 103 µM)
IC50 [2]: 50.3 µg/mL (≈ 87.3 µM)
